In patent US4002742A, “1-N-alkyl-4,6-di-(aminoglycosyl)-1,3-diaminocyclitols, methods for their manufacture, methods for their use as antibacterial agents, and compositions useful therefor” (priority 1974, dated 1977):
Values after ≈ are worked out from the molar mass of the structure shown.

Tests used:
Assay type in all cases: cell-based
[1] = system: organisms resistant to the parent compound; assay: activity against organisms resistant to the 1-N-unsubstituted parent compounds; settings: organisms resistant to the 1-N-unsubstituted precursors
Description: (§1) Particularly useful compounds of our invention are those wherein X is a lower alkyl having up to 8 carbon atoms, particularly those having up to 4 carbon atoms, e.g. compounds of formulae I, II, III, IV, and V wherein X is methyl, ethyl, n-propyl or n-butyl.

[2] = system: bacteria; assay: antibacterial activity and spectrum compared with the gentamicins
[3] = system: Escherichia coli; assay: in vitro minimal inhibitory concentration, standard tube dilution method in Mueller-Hinton broth
Description: In Table 1, set forth below is shown the in vitro minimal inhibitory concentration (MIC) of gentamicin C2a against representative gram-positive gram-negative bacteria. The results are derived using the standard tube dilution method in Mueller-Hinton broth.
In Table 2, set forth below is shown the in vitro minimal inhibitory concentration (MIC) of gentamicin C2b against representative gram-positive and gram-negative bacteria. The results are derived using the standard tube dilution method in Mueller-Hinton broth.

[4] = system: gram positive bacteria and gram negative bacteria; assay: antibacterial activity (standard dilution tests); settings: versus parent antibiotic
Description: as §1

Row | Structure (SMILES) | activity against resistant organisms [1] | also measured
1 | CCCN[C@@H]1C[C@H](N)[C@@H](O[C@H]2OC(C(C)N)=CC[C@H]2N)[C@H](O)[C@H]1O[C@H]1OC[C@](C)(O)[C@H](NC)[C@H]1O (stereo partly shown) [1-N-(n-propyl) verdamicin, 1-N-(n-propyl)verdamicin] | exhibit activity against gram negative organisms which are resistant to their 1-N-unsubstituted precursors | –
2 | CCCN[C@@H]1C[C@H](N)[C@@H](O[C@H]2OC(CN)=CC[C@H]2N)[C@H](O)[C@H]1O[C@H]1OC[C@](C)(O)[C@H](NC)[C@H]1O [1-N-(n-propyl) sisomicin, 1-N-(n-propyl)sisomicin] | exhibit activity against gram negative organisms which are resistant to their 1-N-unsubstituted precursors | –
3 | CN[C@@H]1[C@@H](O)[C@@H](O[C@@H]2[C@@H](O)[C@H](O[C@H]3O[C@H]([C@H](C)N)CC[C@H]3N)[C@@H](N)C[C@H]2N)OC[C@]1(C)O [gentamicin C2a] | – | activity relative to the gentamicin C complex ([2]; as the free base, of the activity of the gentamicin C complex): about 74%; antibacterial spectrum in vitro ([2]; compared with gentamicin C1, C1a and C2): substantially the same antibacterial spectrum in vitro as do gentamicin C1, C1a, and C2; MIC [3]: 17.5 µg/mL (≈ 37.8 µM)
4 | CCN[C@@H]1C[C@H](N)[C@@H](O[C@H]2OC(CN)=CC[C@H]2N)[C@H](O)[C@H]1O[C@H]1OC[C@](C)(O)[C@H](NC)[C@H]1O [1-N-ethylsisomicin] | exhibit activity against gram negative organisms which are resistant to their 1-N-unsubstituted precursors | antibacterial activity compared to the parent antibiotics [4]: enhanced antibacterial activity
5 | CN[C@@H]1[C@@H](O)[C@@H](O[C@@H]2[C@@H](O)[C@H](O[C@H]3OC(C(C)N)=CC[C@H]3N)[C@@H](N)C[C@H]2NCCCCN)OC[C@]1(C)O (stereo partly shown) [1-N-(δ-aminobutyl) verdamicin, 1-N-(δ-aminobutyl)veradamicin] | exhibit activity against gram negative organisms which are resistant to their 1-N-unsubstituted precursors | –
6 | CN[C@@H]1[C@@H](O)[C@@H](O[C@@H]2[C@@H](O)[C@H](O[C@H]3OC(CN)=CC[C@H]3N)[C@@H](N)C[C@H]2NCCCCN)OC[C@]1(C)O [1-N-(δ-aminobutyl) sisomicin, 1-N-(δ-aminobutyl)sisomicin] | exhibit activity against gram negative organisms which are resistant to their 1-N-unsubstituted precursors | –
7 | CCN[C@@H]1C[C@H](N)[C@@H](O[C@H]2OC(C(C)N)=CC[C@H]2N)[C@H](O)[C@H]1O[C@H]1OC[C@](C)(O)[C@H](NC)[C@H]1O (stereo partly shown) [1-N-ethylverdamicin] | exhibit activity against gram negative organisms which are resistant to their 1-N-unsubstituted precursors | –
